From patent publication US5162328A, “N-[3-[2-(1H-imidazol-1-yl)ethoxy]phenyl]-4-(2-thienyl)-2-pyrimidinamine and pharmacologically acceptable salts” (American Cyanamid Company, priority 1991, dated 1992)
Where two headings read alike, the source gives them in different places.

Assay: Pharmacokinetics in dogs (plasma concentration by HPLC)
Format: in vivo, dog (beagle)
Conditions: for AUC(0-t) / Cmax / Tmax / half-life / AUC(0-inf) / concentration at 0.5 h / concentration at 1 h / concentration at 2 h / concentration at 4 h / concentration at 7 h / concentration at 12 h: 2 mg/kg/day PO; for AUC(0-inf): read-out: AUCO- (to infinite time)
Protocol: Since dogs are used in toxicology studies of antiasthma compounds, this species is chosen for pharmacokinetic evaluations. Use of the dog permits the pharmacokinetic comparison of 2 or more compounds in the same test animal, an evaluation which could not be conveniently performed in a smaller species. For each test compound, normal dogs are given a dose of 2.0 mg/kg/day for 5 consecutive days. There is a washout period of 1 month between the study of each of the test compounds in the same four dogs. Each test compound is administered as a solution of 5 mg/ml in either 0.05 or 0.1N HCl which is dispensed into a gelatin capsule immediately prior to dosage.
Heparinized blood samples are obtained from each animal on the first, third and fifth day of dosage at 0.5, 1.0, 2.0, 4.0, 7.0, 12.0 and 24.0 hours after the dose. The samples are centrifuged immediately to obtain plasma which is frozen until analyzed.
Analysis of plasma is performed using High Performance Liquid Chromatography (HPLC). The analytical procedure is essentially identical for each compound. The internal standard used for N-[3-[2-(1H-imidazol-1-yl)ethoxy]phenyl]-4-(2-thienyl)2-pyrimidinamine is 2-chloro-11-(4-methyl-1-piperazinyl)dibenz[b,f][1,4]oxazepine succinate, while for 2-methyl-N^4 -[4-(4-pyridinyl)-2-pyrimidinyl]-1,4-benzenediamine dihydrochloride and N-[4-[2-(diethylamino)ethoxy]phenyl]-4-(4-pyridinyl)-2-pyrimidnamine dihydrochloride the internal standard is 7-ethoxy-coumarin. In a typical procedure, a 0.4 ml volume of acetonitrile containing internal standard is added a 0.2 ml volume of serum. The sample is mixed by vortexing and centrifuged. The clear protein free supernatent fluid is decanted into a clean tube and evaporated to dryness. The dry residue is dissolved in 0.2 ml of HPLC mobile phase and 50 ul of this solution injected. Peaks corresponding to the test compound being measured and to the internal standard compound are quantitated by their absorption of ultraviolet light at 280 nm. Each set of analytical samples is accompanied by the analysis of a group of standard dog plasma samples prepared to contain amounts of the compound being measured which encompasses the concentration range of the samples.
Four normal beagle dogs weighing between 9.2 and 10.2 Kg are used in the study.

[1] = dog, plasma, po, 2 mg/kg/day, Dog 3, day 3
[2] = dog, plasma, po, 2 mg/kg/day, Dog 3, day 5
[3] = dog, plasma, po, 2 mg/kg/day, Dog 4, day 1
[4] = dog, plasma, po, 2 mg/kg/day, Dog 4, day 3
[5] = dog, plasma, po, 2 mg/kg/day, Dog 4, day 5
[6] = dog, plasma, po, 2 mg/kg/day, Mean, day 1
[7] = dog, plasma, po, 2 mg/kg/day, Mean, day 3
[8] = dog, plasma, po, 2 mg/kg/day, Mean, day 5

c1cc(Nc2nccc(-c3cccs3)n2)cc(OCCn2ccnc2)c1 [N-[3-[2-(1H-imidazol-1-yl)ethoxy]phenyl]-4-(2-thienyl)-2-pyrimidinamine]
AUC(0-t) [1]: 799 ng·h/mL
Cmax [1]: 350 ng/mL
Tmax [1]: 1 h
half-life [1]: 1.62 h
AUC(0-inf) [1]: 955 ng·h/mL
concentration at 0.5 h (dog, plasma, po, 2 mg/kg/day, Dog 3, day 5, 0.5 h): < 30 ng/mL
concentration at 1 h (dog, plasma, po, 2 mg/kg/day, Dog 3, day 5, 1 h): 272 ng/mL
concentration at 2 h (dog, plasma, po, 2 mg/kg/day, Dog 3, day 5, 2 h): 233 ng/mL
concentration at 4 h (dog, plasma, po, 2 mg/kg/day, Dog 3, day 5, 4 h): 114 ng/mL
concentration at 7 h (dog, plasma, po, 2 mg/kg/day, Dog 3, day 5, 7 h): < 30 ng/mL
concentration at 12 h (dog, plasma, po, 2 mg/kg/day, Dog 3, day 5, 12 h): < 30 ng/mL
AUC(0-t) [2]: 682 ng·h/mL
Cmax [2]: 272 ng/mL
Tmax [2]: 1 h
half-life [2]: 1.94 h
AUC(0-inf) [2]: 978 ng·h/mL
concentration at 0.5 h (dog, plasma, po, 2 mg/kg/day, Dog 4, day 1, 0.5 h): 173 ng/mL
concentration at 1 h (dog, plasma, po, 2 mg/kg/day, Dog 4, day 1, 1 h): 364 ng/mL
concentration at 2 h (dog, plasma, po, 2 mg/kg/day, Dog 4, day 1, 2 h): 325 ng/mL
concentration at 4 h (dog, plasma, po, 2 mg/kg/day, Dog 4, day 1, 4 h): 172 ng/mL
concentration at 7 h (dog, plasma, po, 2 mg/kg/day, Dog 4, day 1, 7 h): 40 ng/mL
concentration at 12 h (dog, plasma, po, 2 mg/kg/day, Dog 4, day 1, 12 h): < 30 ng/mL
AUC(0-t) [3]: 1340 ng·h/mL
Cmax [3]: 364 ng/mL
Tmax [3]: 1 h
half-life [3]: 1.64 h
AUC(0-inf) [3]: 1440 ng·h/mL
concentration at 0.5 h (dog, plasma, po, 2 mg/kg/day, Dog 4, day 3, 0.5 h): 65 ng/mL
concentration at 1 h (dog, plasma, po, 2 mg/kg/day, Dog 4, day 3, 1 h): 220 ng/mL
concentration at 2 h (dog, plasma, po, 2 mg/kg/day, Dog 4, day 3, 2 h): 144 ng/mL
concentration at 4 h (dog, plasma, po, 2 mg/kg/day, Dog 4, day 3, 4 h): 38 ng/mL
concentration at 7 h (dog, plasma, po, 2 mg/kg/day, Dog 4, day 3, 7 h): < 30 ng/mL
concentration at 12 h (dog, plasma, po, 2 mg/kg/day, Dog 4, day 3, 12 h): < 30 ng/mL
AUC(0-t) [4]: 452 ng·h/mL
Cmax [4]: 220 ng/mL
Tmax [4]: 1 h
half-life [4]: 1.61 h
AUC(0-inf) [4]: 551 ng·h/mL
concentration at 0.5 h (dog, plasma, po, 2 mg/kg/day, Dog 4, day 5, 0.5 h): < 30 ng/mL
concentration at 1 h (dog, plasma, po, 2 mg/kg/day, Dog 4, day 5, 1 h): 191 ng/mL
concentration at 2 h (dog, plasma, po, 2 mg/kg/day, Dog 4, day 5, 2 h): 197 ng/mL
concentration at 4 h (dog, plasma, po, 2 mg/kg/day, Dog 4, day 5, 4 h): 71 ng/mL
concentration at 7 h (dog, plasma, po, 2 mg/kg/day, Dog 4, day 5, 7 h): < 30 ng/mL
concentration at 12 h (dog, plasma, po, 2 mg/kg/day, Dog 4, day 5, 12 h): < 30 ng/mL
AUC(0-t) [5]: 510 ng·h/mL
Cmax [5]: 197 ng/mL
Tmax [5]: 2 h
AUC(0-inf) [5]: 694 ng·h/mL
concentration at 0.5 h (dog, plasma, po, 2 mg/kg/day, Mean of 4 dogs, day 1, 0.5 h): 235 ng/mL
concentration at 1 h (dog, plasma, po, 2 mg/kg/day, Mean of 4 dogs, day 1, 1 h): 405 ng/mL
concentration at 2 h (dog, plasma, po, 2 mg/kg/day, Mean of 4 dogs, day 1, 2 h): 318 ng/mL
concentration at 4 h (dog, plasma, po, 2 mg/kg/day, Mean of 4 dogs, day 1, 4 h): 188 ng/mL
concentration at 7 h (dog, plasma, po, 2 mg/kg/day, Mean of 4 dogs, day 1, 7 h): 52 ng/mL
concentration at 12 h (dog, plasma, po, 2 mg/kg/day, Mean of 4 dogs, day 1, 12 h): < 30 ng/mL
concentration at 0.5 h (dog, plasma, po, 2 mg/kg/day, Mean of 4 dogs, day 3, 0.5 h): 89 ng/mL
concentration at 1 h (dog, plasma, po, 2 mg/kg/day, Mean of 4 dogs, day 3, 1 h): 225 ng/mL
concentration at 2 h (dog, plasma, po, 2 mg/kg/day, Mean of 4 dogs, day 3, 2 h): 148 ng/mL
concentration at 4 h (dog, plasma, po, 2 mg/kg/day, Mean of 4 dogs, day 3, 4 h): 33 ng/mL
concentration at 7 h (dog, plasma, po, 2 mg/kg/day, Mean of 4 dogs, day 3, 7 h): < 30 ng/mL
concentration at 12 h (dog, plasma, po, 2 mg/kg/day, Mean of 4 dogs, day 3, 12 h): < 30 ng/mL
concentration at 0.5 h (dog, plasma, po, 2 mg/kg/day, Mean of 4 dogs, day 5, 0.5 h): 106 ng/mL
concentration at 1 h (dog, plasma, po, 2 mg/kg/day, Mean of 4 dogs, day 5, 1 h): 276 ng/mL
concentration at 2 h (dog, plasma, po, 2 mg/kg/day, Mean of 4 dogs, day 5, 2 h): 212 ng/mL
concentration at 4 h (dog, plasma, po, 2 mg/kg/day, Mean of 4 dogs, day 5, 4 h): 82 ng/mL
concentration at 7 h (dog, plasma, po, 2 mg/kg/day, Mean of 4 dogs, day 5, 7 h): < 30 ng/mL
concentration at 12 h (dog, plasma, po, 2 mg/kg/day, Mean of 4 dogs, day 5, 12 h): < 30 ng/mL
AUC(0-t) [6]: 1380 ng·h/mL
Cmax [6]: 405 ng/mL
Tmax [6]: 1 h
half-life [6]: 2.27 h
AUC(0-inf) [6]: 1620 ng·h/mL
AUC(0-t) [7]: 444 ng·h/mL
Cmax [7]: 225 ng/mL
Tmax [7]: 1 h
half-life [7]: 1.47 h
AUC(0-inf) [7]: 595 ng·h/mL
AUC(0-t) [8]: 659 ng·h/mL
Cmax [8]: 277 ng/mL
Tmax [8]: 1.25 h
half-life [8]: 1.5 h
AUC(0-inf) [8]: 871 ng·h/mL
k el (dog, plasma, po, 2 mg/kg/day, derived from mean of half-life values, read-out: elimination constant (converted)): 0.000107 s⁻¹
plasma half-life (in words) (dogs, compared with the two compounds of U.S. Pat. No. 4,788,195): increased plasma half-life and reproducibility
